Target: T1, Human TRPV3 (Homo sapiens, UniProt Q8NET8)
T1 construct: expressed in transfected cells; host or cells: CHO cells (G-418 selected)
T1 sequence (Q8NET8 1-790): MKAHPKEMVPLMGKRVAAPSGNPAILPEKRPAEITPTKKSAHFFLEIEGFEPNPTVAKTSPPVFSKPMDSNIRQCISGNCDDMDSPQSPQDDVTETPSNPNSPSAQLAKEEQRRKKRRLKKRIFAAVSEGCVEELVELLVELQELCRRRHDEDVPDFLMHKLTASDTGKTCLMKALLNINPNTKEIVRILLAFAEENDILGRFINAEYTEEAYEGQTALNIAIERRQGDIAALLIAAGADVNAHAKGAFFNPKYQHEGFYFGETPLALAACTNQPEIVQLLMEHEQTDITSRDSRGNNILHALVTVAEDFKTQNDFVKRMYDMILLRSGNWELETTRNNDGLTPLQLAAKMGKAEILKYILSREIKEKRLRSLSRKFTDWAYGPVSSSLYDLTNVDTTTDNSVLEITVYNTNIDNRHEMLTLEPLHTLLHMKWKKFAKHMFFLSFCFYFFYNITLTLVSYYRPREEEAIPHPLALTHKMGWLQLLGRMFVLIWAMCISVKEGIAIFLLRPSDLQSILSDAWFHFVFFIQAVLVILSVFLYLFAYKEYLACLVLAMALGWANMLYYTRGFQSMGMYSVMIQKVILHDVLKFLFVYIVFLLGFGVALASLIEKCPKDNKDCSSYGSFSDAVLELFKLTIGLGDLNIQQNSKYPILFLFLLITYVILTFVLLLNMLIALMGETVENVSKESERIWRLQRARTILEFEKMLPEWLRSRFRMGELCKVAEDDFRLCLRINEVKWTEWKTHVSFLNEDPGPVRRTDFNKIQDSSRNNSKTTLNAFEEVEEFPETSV
Experiment: 45Calcium uptake assay: inhibition of 2-APB induced cellular uptake of radioactive calcium
Format: cell-based
Conditions: human TRPV3 expressing CHO cells, 2-APB 500 μM; for inhibition at 1 µM: 1.0 μM compound, read-out: Percentage inhibition at 1.0 μM; for inhibition at 10 µM: 10.0 μM compound, read-out: Percentage inhibition at 10.0 μM
Source text: The illustrative examples of the present invention are screened for TRPV3 activity according to a modified procedure described in Toth, A. et al. Life Sciences (2003), 73, 487-498. The screening of the compounds can be carried out by other methods and procedures known to a person skilled in the art. Such screening methods may be found in Hu, H-Z., et al. J. Biol. Chem. (2004), 279, 35741-35748; Smith, G. D et al. Nature (2002), 418, 186-190 and Peier, A. M., et al. Science (2002), 296, 2046-2049.
Screening for TRPV3 Antagonist Using the ^45Calcium Uptake Assay:
The inhibition of TRPV3 receptor activation was followed as inhibition of 2-APB induced cellular uptake of radioactive calcium. Test compounds were dissolved in DMSO to prepare 20 mM stock and then diluted using plain medium with 0.1% BSA and 1.8 mM CaCl2 to get desired concentration. Final concentration of DMSO in the reaction was 0.5% (v/v). Human TRPV3 expressing CHO cells were grown in F-12 DMEM medium with 10% FBS, 1% penicillin-streptomycin solution, 400 μg/ml of G-418. Cells were seeded 24 h prior to the assay in 96 well plates so as to get ˜50,000 cells per well on the day of experiment. Cells were treated with test compounds for 10 minutes followed by addition of 2-APB at a final concentration of 500 μM and 5 μCi/ml ^45Ca^+2 for 4 minutes. Cells were washed and lysed using buffer containing 1% Triton X-100, 0.1% deoxycholate and 0.1% SDS. Radioactivity in the lysate was measured in Packardt Top count after addition of liquid scintillant.
Concentration response curves were plotted as a % of maximal response obtained in the absence of test antagonist. IC50 value was calculated from concentration response curve by nonlinear regression analysis using GraphPad PRISM software.
Percentage inhibition at concentrations of 1.0 μM and 10.0 μM are given in the table along with IC50 (nM) values for selected examples.

SMILES | inhibition at 1 µM [%] | inhibition at 10 µM [%] | IC50 [nM]
O=C(Cc1noc2ccccc12)N[C@@H]1CC2(CCC2)Oc2ccc(Cl)cc21 [Example 26] | 29.4 | 46.1 | 
O=C(Cc1noc2ccccc12)N[C@H]1CC2(CCC2)Oc2ccc(Cl)cc21 [Example 27] | 5.3 | 75.9 | 
O=C(CCc1ccccc1OC1CCCC1)NC1CC2(CCC2)Oc2ccc(Cl)cc21 (stereo not drawn) [Example 28, N-(6-Chloro-3,4-dihydrospiro[chromene-2,1′-cyclobutan]-4-yl)-3-(2-cyclopentyloxyphenyl)propanamide] | 58 | 84.3 | 
O=C(CCc1cccc(OC2CCCC2)c1)N[C@@H]1CC2(CCC2)Oc2ccc(Cl)cc21 [Example 29, N-[(4R)-6-chloro-3,4-dihydrospiro[chromene-2,1′-cyclobutan]-4-yl]-3-(3-cyclopentyloxy)phenyl propanamide] | 43.6 | 88.4 | 
O=C(CCc1cccc(OC2CCCC2)c1)N[C@H]1CC2(CCC2)Oc2ccc(Cl)cc21 [Example 30, N-[(4S)-6-chloro-3,4-dihydrospiro[chromene-2,1′-cyclobutan]-4-yl]-3-(3-cyclopentyloxy)phenylpropanamide] | 46.8 | 80.6 | 
O=C(CCc1ccccc1OC1CCCC1)N[C@@H]1CC2(CCC2)Oc2c(Cl)cccc21 [Example 31, N-1(4R)-(8-Chloro-3,4-dihydrospiro[chromene-2,1′-cyclobutan]-4-yl)-3-(2-cyclopentyloxy)phenyl propanamide] | 78.6 | 97.4 | 500 to 1000
O=C(CCc1ccccc1OC1CCCC1)N[C@H]1CC2(CCC2)Oc2c(Cl)cccc21 [Example 32] | 24.8 | 43.9 | 
O=C(CCc1ccccc1OC1CCCC1)N[C@H]1CC2(CCC2)Oc2cc(OCc3ccccc3)ccc21 [Example 33, 7-Benzyloxy-N-(3,4-dihydrospiro[chromene-2,1′-cyclobutan]-4-yl)-3-(2-cyclopentylxoyphenyl)propanamide] | 13.5 | 33.9 | 
CC(C)S(=O)(=O)Nc1ccccc1CCC(=O)NC1CC2(CCC2)Oc2ccc(Cl)cc21 (stereo not drawn) [Example 34, N-(6-Chloro-3,4-dihydrospiro[chromene-2,1′-cyclobutan]-4-yl)-3-{2-[(isopropylsulfonyl)amino]phenyl}propanamide] | 5.69 | 77.1 | 
O=C(CCc1ccccc1-c1ccccn1)NC1CC2(CCC2)Oc2ccc(Cl)cc21 (stereo not drawn) [Example 35, N-(6-Chloro-3,4-dihydrospiro[chromene-2,1′-cyclobutan]-4-yl)-3-(2-pyridin-2-ylphenyl) propanamide] | 44.8 | 97.6 | 
COc1cccc(CCC(=O)NC2CC3(CCC3)Oc3ccccc32)c1OC1CCCC1 (stereo not drawn) [Example 37, N-(3,4-Dihydrospiro[chromene-2,1′-cyclobutan]-4-yl)-3-(2-cyclopentyloxy-3-methoxy)phenylpropanamide] | 46.3 | 95.7 | 500 to 1000
COc1cccc(CCC(=O)NC2CC3(CCC3)Oc3ccc(Cl)cc32)c1OC (stereo not drawn) [Example 38, N-(6-Chloro-3,4-dihydrospiro[chromene-2,1′-cyclobutan]-4-yl)-3-(2,3-dimethoxy)-phenylpropanamide] | 23.8 | 82.7 | 
COc1cccc(CCC(=O)NC2CC3(CCC3)Oc3ccc(Cl)cc32)c1OC(C)C (stereo not drawn) [Example 39, N-(6-Chloro-3,4-dihydrospiro[chromene-2,1′-cyclobutan]-4-yl)-3-(2-isopropoxy-3-methoxy)phenylpropanamide] | 73.8 | 97.5 | 500 to 1000
COc1ccc(CCC(=O)NC2CC3(CCC3)Oc3ccc(Cl)cc32)cc1Cl (stereo not drawn) [Example 40, N-(6-Chloro-3,4-dihydrospiro[chromene-2,1′-cyclobutan]-4-yl)-3-(3-chloro-4-methoxy)phenylpropanamide] | 6.8 | 93.5 | 
COc1cccc(CCC(=O)NC2CC3(CCC3)Oc3ccc(Cl)cc32)c1OCC1CC1 (stereo not drawn) [Example 41, N-(6-Chloro-3,4-dihydrospiro[chromene-2,1′-cyclobutan]-4-yl)-3-(2-cyclopropylmethoxy-3-methoxy)phenylpropanamide] | 49 | 96.4 | 500 to 1000
COc1cccc(CCC(=O)N[C@@H]2CC3(CCC3)Oc3ccc(Cl)cc32)c1OC1CCCC1 [Example 42] | 47.2 | 95.1 | 500 to 1000
COc1cccc(CCC(=O)N[C@H]2CC3(CCC3)Oc3ccc(Cl)cc32)c1OC1CCCC1 [Example 43] | 64.6 | 91.7 | 500 to 1000
CCOc1cccc(CCC(=O)NC2CC3(CCC3)Oc3ccc(Cl)cc32)c1OC1CCCC1 (stereo not drawn) [Example 44, N-(6-Chloro-3,4-dihydrospiro[chromene-2,1′-cyclobutan]-4-yl)-3-(2-cyclopentyloxy-3-ethoxy)phenylpropanamide] | 50.8 | 88.8 | 

Other lines, results leading:

inhibition at 1 µM [%] | inhibition at 10 µM [%] | IC50 [nM] | SMILES
59.2 | 94.8 | 500 to 1000 | COc1cccc(CCC(=O)NC2CC3(CCC3)Oc3cc(Cl)ccc32)c1OC1CCCC1 (stereo not drawn) [Example 45, N-(7-Chloro-3,4-dihydrospiro[chromene-2,1′-cyclobutan]-4-yl)-3-(2-cyclopentyloxy-3-methoxy)phenylpropanamide]
53.2 | 99.7 | 500 to 1000 | CCOc1c(CCC(=O)NC2CC3(CCC3)Oc3c(Cl)cccc32)cccc1OC (stereo not drawn) [Example 46, N-(8-Chloro-3,4-dihydrospiro[chromene-2,1′-cyclobutan]-4-yl)-3-(2-ethoxy-3-methoxy)phenylpropanamide]
 |  | < 500 | COc1cccc(CCC(=O)N[C@@H]2CC3(CCC3)Oc3c(Cl)cccc32)c1OC1CCCC1 [Example 47]
 |  | 500 to 1000 | COc1cccc(CCC(=O)N[C@H]2CC3(CCC3)Oc3c(Cl)cccc32)c1OC1CCCC1 [Example 48]
35.4 | 70.1 |  | COc1cccc(CCC(=O)NC2CC3(CCC3)Oc3cc(C)c(Cl)cc32)c1OC1CCCC1 (stereo not drawn) [Example 49, N-(6-Chloro-7-methyl-3,4-dihydrospiro[chromene-2,1′-cyclobutan]-4-yl)-3-(2-cyclo-pentyloxy-3-methoxy)phenylpropanamide]
52.8 | 77.6 | 500 to 1000 | COc1cccc(CCC(=O)NC2CC3(CCC3)Oc3cccc(OCc4ccccc4)c32)c1OC1CCCC1 (stereo not drawn) [Example 50, N-(5-Benzyloxy-3,4-dihydrospiro[chromene-2,1′-cyclobutan]-4-yl)-3-(2-cyclopentyloxy-3-methoxy)phenylpropanamide]
37.1 | 86.7 | 1000 to 2000 | COc1cccc(CCC(=O)NC2CC3(CCC3)Oc3cccc(O)c32)c1OC1CCCC1 (stereo not drawn) [Example 51, N-(5-Hydroxy-3,4-dihydrospiro[chromene-2,1′-cyclobutan]-4-yl)-3-(2-cyclopentyloxy-3-methoxy)phenylpropanamide]
39.6 | 92.5 |  | COc1cccc(CCC(=O)NC2CC3(CCC3)Oc3cccc(OC)c32)c1OC1CCCC1 (stereo not drawn) [Example 52, N-(3,4-Dihydrospiro[chromene-2,1′-cyclobutan]-5-methoxy-4-yl)-3-(2-cyclopentyloxy-3-methoxy)phenylpropanamide]

— patent publication US8487121B2, “Chromane derivatives as TRPV3 modulators” (Glenmark Pharmaceuticals S.A., priority 2007, dated 2013)
